Patent US12551564B2, “IRAK degraders and uses thereof” (Kymera Therapeutics, Inc., priority 2019, dated 2026)
pIC50: −log10 of the molar value. Like-named read-outs stand apart in the source and are kept apart here.

Key:
IRAK4 = target: T1, IRAK4 (Homo sapiens, UniProt Q9NWZ3); assay: IRAK4 degradation in OCI-LY10 (MSD); format: cell-based; conditions: OCI-LY10 cells
T1 construct: endogenous in cells; host or cells: OCI-LY10
T1 sequence (Q9NWZ3 1-460): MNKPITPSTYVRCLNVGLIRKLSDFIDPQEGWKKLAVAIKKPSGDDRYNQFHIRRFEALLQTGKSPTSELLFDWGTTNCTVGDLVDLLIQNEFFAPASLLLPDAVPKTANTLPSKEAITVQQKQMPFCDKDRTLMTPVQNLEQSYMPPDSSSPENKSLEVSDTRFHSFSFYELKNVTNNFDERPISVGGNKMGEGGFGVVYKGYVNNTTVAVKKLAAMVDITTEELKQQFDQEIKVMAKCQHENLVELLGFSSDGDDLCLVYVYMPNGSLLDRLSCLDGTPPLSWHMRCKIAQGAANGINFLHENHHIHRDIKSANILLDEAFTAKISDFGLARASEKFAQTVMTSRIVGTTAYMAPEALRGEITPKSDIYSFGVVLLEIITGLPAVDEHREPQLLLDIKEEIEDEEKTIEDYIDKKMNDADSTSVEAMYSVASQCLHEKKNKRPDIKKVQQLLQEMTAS
Experimental: IRAK4 degradation in OCI-LY10 (MSD)
Degradation of IRAK4 in OCI-LY10 was quantitatively measured using Meso Scale Discovery technology. OCI-LY10 cells were seeded in 96-well plates (Corning 3799) with a density of 300,000 cells per well in 100 μL fresh media. Compounds were then added to the assay plates with a final top concentration of 1 to 10 μM in a 1:3 dilution series with total of 8 doses. The assay plates were then incubated for 4 to 24 hours at 37° C. under 5% CO2. The assay plates were then centrifuged for 5 minutes and the cell pellets were treated with 100 μL/well RIPA lysis buffer (Boston BioProducts BP-115D) with proteinase inhibitors. To prepare MSD assay plates (Meso Scale Discovery Catalog number L15XA-3), the plates were coated with 2 μg/mL capture antibody (mouse Anti-IRAK4 antibody [2H9], ab119942) in PBS, at 40 μL/well. The plates were then incubated overnight at 4° C., washed 3 times with 150 μL/well TBST buffer (Cell Signaling Technology, Catalog number 9997S) and blocked with 150 μL well blocking buffer (Meso Scale Discovery Catalog number R93BA-4). Cell lysates were then added to MSD assay plates and the plates were incubated at room temperature for 1 hour. The plates were then washed 3 times with 150 μL/well TBST buffer and 25 μL/well primary detection antibody (rabbit Anti-IRAK4 antibody [Y279], from Abcam. Catalog number ab32511, 1 μg/mL). The assay plates were then incubated at room temperature for 1 hour, washed 3 times with 150 TBST buffer and 25A/well secondary detection antibody, SULFO-TAG anti-rabbit antibody were added (anti rabbit antibody from Meso Scale Discovery, Catalog number R32AB-1, 1 μg/mL). The assay plates were then incubated at room temperature for 1 hour, washed 3 times with 150 TBST buffer, and 150 MSD reading buffer (Meso Scale Discovery catalog number R92TC-2) was added. The plates were then analyzed by a MSD reader (Meso Scale Discovery, Model Quick Plex SQ 120). The data was then analyzed by software Prism 7.0 from GraphPad and the dose-depended IRAK4 degradation were fit using a three-parameter logistic equation to calculate DC50.

OCI-LY10 = assay: CTG Cell Viability Assay - OCI-LY10 (CellTiter-Glo); format: cell-based; conditions: Homo sapiens, 96 h; OCI-LY10 cells, 4 days incubation; read-out: CTG Cell Viability Assay-OCI-LY100: Average external-IC50
Experimental: Cell viability assay with OCI-LY10 and TMD8
Compound-mediated viability effect on OCI-LY10 or TMD8 were quantitatively determined using the CellTiter-Glo® Luminescent Cell Viability Assay kit from Promega (Catalog number G7570) following manufacturer's recommended procedures. Briefly, OCI-LY10 or TMD8 cells is seeded into 384 well plates (Grenier Bio-One, Catalog number 781080) with a density of 10,000 cells per well. Compounds were then added to the assay plate with final top concentration of 10 μM and 1:3 dilution series with total of 9 doses. The final DMSO concentration was normalized to 0.2%. The assay plates were incubated at 37° C. for 4 days under 5% CO2. Then the assay plate was equilibrated at room temperature for 10 minutes. To determine cell viability, 30 μL CellTiter Glo reagent was added to each well and the assay plate was centrifuged at 1000 rpm for 30 second, incubated at room temperature for 10 min, and analyzed by detecting the luminescence using a multimode plate reader (EnVision 2105, PerkinElmer). The data was then analyzed by software Prism 7.0 from GraphPad and the dose response curves were fit using a three-parameter logistic equation to calculate IC50.

[1] = 4 hrs incubation, read-out: IRAK4 MSD degradation in OCI-LY10 at 4 hrs: Average external-Abs DC50
[2] = 24 hrs incubation, read-out: IRAK4 MSD degradation in OCI-LY10 at 24 hrs: Average external-Abs DC50

| Structure (SMILES) | DC50 (IRAK4; [1]) [µM] | DC50 (IRAK4; [2]) [µM] | pIC50 (OCI-LY10) |
| --- | --- | --- | --- |
| CN(CCCNC(=O)COc1ccc2c(c1)CCCN2C(=O)CCl)C[C@H]1CC[C@H](n2cc(NC(=O)c3coc(-c4ccnc(NCC5CC5)c4)n3)c(C(F)F)n2)CC1 [I-1, N-(1-((1r,4r)-4-(((3-(2-((1-(2-chloroacetyl)-1,2,3,4-tetrahydroquinolin-6-yl)oxy)acetamido)propyl)(methyl)amino)methyl)cyclohexyl)-3-(difluoromethyl)-1H-pyrazol-4-yl)-2-(2-((cyclopropylmethyl)amino)pyridin-4-yl)oxazole-4-carboxamide] | > 1 | > 1 | < 6.00 |
| CN(CCCCCNC(=O)COc1ccc2c(c1)CCCN2C(=O)CCl)C[C@H]1CC[C@H](n2cc(NC(=O)c3coc(-c4ccnc(NCC5CC5)c4)n3)c(C(F)F)n2)CC1 [I-2] | > 1 | > 1 | < 6.00 |
| CN(CCCCCCCNC(=O)COc1ccc2c(c1)CCCN2C(=O)CCl)C[C@H]1CC[C@H](n2cc(NC(=O)c3coc(-c4ccnc(NCC5CC5)c4)n3)c(C(F)F)n2)CC1 [I-3] | > 1 | > 1 | < 6.00 |
| CN(CCCCCCCCCNC(=O)COc1ccc2c(c1)CCCN2C(=O)CCl)C[C@H]1CC[C@H](n2cc(NC(=O)c3coc(-c4ccnc(NCC5CC5)c4)n3)c(C(F)F)n2)CC1 [I-4] | – | > 1 | < 6.00 |
| CN(CCCCOc1ccc(Oc2ccc(N(Cc3ccccc3)C(=O)CCl)cc2)cc1)C[C@H]1CC[C@H](n2cc(NC(=O)c3coc(-c4ccnc(NCC5CC5)c4)n3)c(C(F)F)n2)CC1 [I-5] | > 1 | > 1 | < 6.00 |
| CN(CCCCCCOc1ccc(Oc2ccc(N(Cc3ccccc3)C(=O)CCl)cc2)cc1)C[C@H]1CC[C@H](n2cc(NC(=O)c3coc(-c4ccnc(NCC5CC5)c4)n3)c(C(F)F)n2)CC1 [I-6] | > 1 | > 1 | 6.00 to 6.30 |
| CN(CCCCCCCCOc1ccc(Oc2ccc(N(Cc3ccccc3)C(=O)CCl)cc2)cc1)C[C@H]1CC[C@H](n2cc(NC(=O)c3coc(-c4ccnc(NCC5CC5)c4)n3)c(C(F)F)n2)CC1 [I-7] | > 1 | 0.1 to 1 | 6.00 to 6.30 |
| CN(CCCCCCCCCCOc1ccc(Oc2ccc(N(Cc3ccccc3)C(=O)CCl)cc2)cc1)C[C@H]1CC[C@H](n2cc(NC(=O)c3coc(-c4ccnc(NCC5CC5)c4)n3)c(C(F)F)n2)CC1 [I-8, N-(1-((1r,4r)-4-(((10-(4-(4-(N-benzyl-2-chloroacetamido)phenoxy)phenoxy)decyl)(methyl)amino)methyl)cyclohexyl)-3-(difluoromethyl)-1H-pyrazol-4-yl)-2-(2-((cyclopropylmethyl)amino)pyridin-4-yl)oxazole-4-carboxamide] | > 1 | 0.1 to 1 | 6.00 to 6.30 |
| COCC(=O)N1CCCc2cc(OCC(=O)NCCCCCN(C)C[C@H]3CC[C@H](n4cc(NC(=O)c5coc(-c6ccnc(NCC7CC7)c6)n5)c(C(F)F)n4)CC3)ccc21 [I-9, 2-[2-(cyclopropylmethylamino)-4-pyridyl]-N-[3-(difluoromethyl)-1-[4-[[5-[[2-[[1-(2-methoxyacetyl)-3,4-dihydro-2H-quinolin-6-yl]oxy]acetyl]amino]pentyl-methyl-amino]methyl]cyclohexyl]pyrazol-4-yl]oxazole-4-carboxamide] | > 1 | > 1 | < 6.00 |
| COCC(=O)N(Cc1ccccc1)c1ccc(Oc2ccc(OCCCCN(C)C[C@H]3CC[C@H](n4cc(NC(=O)c5coc(-c6ccnc(NCC7CC7)c6)n5)c(C(F)F)n4)CC3)cc2)cc1 [I-11] | – | > 1 | 6.00 to 6.30 |
| CN(CCCCOc1ccc(Oc2ccc(N(Cc3ccccc3)C(=O)CCl)cc2)cc1)C[C@H]1CC[C@H](n2cc(N(C)C(=O)c3coc(-c4ccnc(NCC5CC5)c4)n3)c(C(F)F)n2)CC1 [I-12] | – | > 1 | 6.00 to 6.30 |
